Ends that are not written are not given here.
Tests used:
Format in all cases: cell-based
Botrytis cinerea = tested on: Botrytis cinerea
Method: (§1) The antimicrobial potential of the peptide described herein was compared with the activity of, two other AMPs, TcAMP1 and TcAMP2 as discussed in WO1998027805, and antibiotics or fungicides. Comparative MIC assays were carried out against several bacterial and fungal species (Table 1).
(§2) Peptides according to SEQ ID N° 1, SEQ ID N° 4, and SEQ ID N° 5 were serially diluted in order to create a concentration sequence ranging from 0.39 μg/ml to […].
(§3) Pantoea, Staphylococcus, and Listeria were cultured in Trypticase Soy Broth (TSY) medium consisting of 1.7% casein peptone, 0.3% soy peptone, 0.25% glucose, 0.5% NaCl, 0.25% K2HPO4 and optionally 1.5% agar. Candida cells were cultured in Yeast Extract Peptone Dextrose (YPD) broth medium consisting of 1% yeast extract, 2% peptone, 2% glucose, and optionally 2% agar. Ceratocystis, Botrytis, Leptosphaeria, Mycosphaerella, Sclerotinia, and Verticillium were cultured in Potato Dextrose Agar (PDA) medium consisting of 2.4% Difco pre-mix broth and optionally 1.5% agar.
(§4) For the MIC assay bacteria and fungi were grown on agar plates with their respective media. Pre-cultures were prepared by inoculating either single bacterial colonies or small pieces of fungi in 5 ml of the respective liquid medium. The optical density (OD) at 600 nm was measured after one to five days and adjusted to an OD600 of 1. This cell suspension was used to prepare 1:500 dilutions, corresponding to approximately 2×10^6 microbial cells per ml.
(§5) To evaluate MICs, 96-well plates were prepared with the test antimicrobial peptides. Each well contained 100 μl microbial cell culture, 90 μl culture medium, and 10 μl peptide or control at the corresponding dilution. The plates were incubated overnight (ON) at the optimal growth temperature for each tested organism. Results were visually evaluated and MICs determined based on growth or no-growth.
(§6) MIC assays were conducted in at least two independent replicates and with different peptide starting concentrations.

Candida albicans = tested on: Candida albicans
Method: as §1, §2, §3, §4, §5, §6

Ceratosystis paradoxa = tested on: Ceratosystis paradoxa
Method: as §1, §2, §3, §4, §5, §6

Leptosphaeria maculans = tested on: Leptosphaeria maculans
Method: as §1, §2, §3, §4, §5, §6

Listeria monocytogenes = tested on: Listeria monocytogenes
Method: as §1, §2, §3, §4, §5, §6

Mycosphaerella pinodes = tested on: Mycosphaerella pinodes
Method: as §1, §2, §3, §4, §5, §6

Pantoea agglomerans = tested on: Pantoea agglomerans
Method: as §1, §2, §3, §4, §5, §6

Sclerotinia sclerotiorum = tested on: Sclerotinia sclerotiorum
Method: as §1, §2, §3, §4, §5, §6

[1] = tested on: Staphylococcus aureus MRSA
Method: as §1, §2, §3, §4, §5, §6

Verticillium dahliae = tested on: Verticillium dahliae
Method: as §1, §2, §3, §4, §5, §6

tested fungal species = experiment: MIC assays, all tested fungal species; conditions: all the tested fungal species
Method: as §1, §2, §3
For the MIC assay bacteria and fungi were grown on agar plates with their respective media. […] The optical density (OD) at 600 nm was measured after one to five days and adjusted to an OD600 of 1. […]
To evaluate MICs, 96-well plates were prepared with the test antimicrobial peptides. […] Results were visually evaluated and MICs determined based on growth or no-growth. […]

YGRKQYERDPRQQYEQCQRRCESEATEEREQEQCEQRCEREYKEQQRQQEEELQRQ (cysteines drawn unpaired) [SEQ ID No 1]
Minimal inhibitory concentration (Botrytis cinerea): 3.5 µg/mL | Minimal inhibitory concentration (Candida albicans): 3.85 µg/mL | Minimal inhibitory concentration (Ceratosystis paradoxa): 1.9 µg/mL | Minimal inhibitory concentration (Leptosphaeria maculans): 12.5 µg/mL | Minimal inhibitory concentration (Listeria monocytogenes): 1.6 µg/mL | Minimal inhibitory concentration (Mycosphaerella pinodes): 2.8 µg/mL | Minimal inhibitory concentration (Pantoea agglomerans): 2.5 µg/mL | Minimal inhibitory concentration (Sclerotinia sclerotiorum): 10.4 µg/mL | Minimal inhibitory concentration [1]: 3.2 µg/mL | Minimal inhibitory concentration (Verticillium dahliae): 3.85 µg/mL | inhibitory effects in MIC assays (tested fungal species): inhibitory effects against all the tested fungal species

— patent US20250304633A1, “PEPTIDE HAVING ANTIMICROBIAL ACTIVITY” (CABOSSE NATURALS NV, priority 2022, published 2025)
